Entries after “also recorded” stand apart in the source; their conditions may differ.
Columns and labels:
C3 fibroblasts [1] = assay: Cell locomotion assay, timelapse image analysis of C3 fibroblasts; assay type: cell-based, murine; conditions: 70% confluent C3, 2 h
Method: For motility experiments, 10^5 cells were subcultured into 25 cm^2 tissue culture flasks (Corning), and maintained for 12 h as above. The medium was then aspirated, cells were rinsed with Hanks Balanced Salt Solution (HBSS) (Gibco) and fresh, serum-free α-MEM containing 4.0 μg/ml transferrin (Gibco) and 2.0 μg/ml insulin (Sigma) (defined medium) was added to the flasks.
Cell locomotion was recorded using a computerized timelapse analysis system (Image 1, Universal Imaging Corporation, Westchester, Pa.) that measures nuclear displacement. During the filming period, cells were maintained at 37° C. in defined-media at physiological pH.
A 10 amino acid peptide corresponding to one of the HA binding domains of RHAMM, peptide^aa423-432 (Yang et al., 1993), was synthesised and added at various concentrations (0,0.1, 1.0, 5.0, 10.0 and 50.0 ng/ml) to 70% confluent C3 fibroblasts. Cell locomotion was monitored by image analysis for 2 h from the addition of the peptide. A scrambled peptide was used as control.
RHAMM-GST fusion protein prepared and purified as described in (b) above was added at concentrations of 1 pg/ml, 1 ng/ml, 1 μg/ml and 1 mg/ml to 70% confluent C3 cultures and cell locomotion was monitored by image analysis for 2 h from protein addition as described in Example 5.
For each experiment, 30 cells were tracked every 10 min for a 1 hr period.
RHAMM-GST fusion protein, as described in (d) above, and deleted/mutated RHAMM-GST fusion protein, as described in (h) above were added at 5 ng/ml to subconfluent cultures of C3 cells and cell locomotion was monitored by image analysis for 2 h from protein addition as described in Example 5.

[2] = system: human breast cancer cell lines; assay: Locomotion of human breast cancer cell lines (timelapse image analysis); assay type: cell-based; conditions: R3 5 μg/ml; peptide I 2 μg/ml; P<0.001
Method: Cells were cultured as described above. For cell locomotion studies, aliquots of 10^5 cells were added to a 25 cm^2 tissue culture flask (Corning). After 24 hours of growth, cells were washed with calcium and magnesium free Hank's balanced salt solution (HBSS) (Gibco BRL), the defined serum-free media (DM), DMEM supplied with 4.0 μg/ml transferrin (Human, Gibco BRL), 0.5 U/ml Lente insulin (beef and pork, Connaught Novo Ltd., Willowdale, Ontario) and 20 mM Hepes, PH 7.2, was added to the flasks. Twelve hours later, cell locomotion was recorded by using a computerized timelapse image analysis system (Image-1, Universal Image Corporation, Westchester, Pa.) which quantitates nuclear displacement Antibody—R3 (5 μg/ml), peptide I (2 μg/ml), control rabbit IgG (5 μg/ml) or scrambled peptide I (2 μg/ml) were added to media 20 min before the beginning of filming. Images were taken with a Zeiss inverted microscope (model IM35, Zeiss) using a 10× objective every 30 min for 3 hours. A minimum of 30 cells were tracked in each above experimental condition; experiments done in triplicate.

[3] = system: macrophage cell line WEHI-3; assay: Macrophage chemotaxis to endotoxin-activated mouse serum, WEHI-3; assay type: cell-based
Method: (§1) The macrophage cell lines S1 and WEHI-3 (Branch et al., 1989) were used to analyze the effect of antibodies and synthetic peptide on macrophage chemotaxis to endotoxin-activated mouse serum (AS). These cells lines were also maintained in DME with 10% FCS and 20 mM Hepes buffer, pH 7.2 at 37° C. and 5% CO2 in air.
(§2) Chemotaxis was stimulated using either bacterial endotoxin-activated mouse serum (AS), prepared according to Stevenson et al. (1981) for macrophages and macrophage cell lines, or 100 ng/ml interleukin-8 (IL-8) for neutrophils. Heat-inactivated serum (56° C. for 20 mintes) or medium served as negative controls respectively. The chemotactic assay used was a colorometric assay described in Shi et al., (1993). Briefly, a 96-well chemotaxis chamber with a lower recess large enough to hold a microtiter plate (Neuro Probe, stock#MBA96) and a 5 μm framed filter (Neuro Probe, stock#PFD5/A) were used. The microtiter plate was filled with chemoattractants and controls and placed in the recess of the chemotaxis chamber. […] The number of displaced cells was quantified by the addition of 3-(4.5-dimethylthiazol-2-yl)-2,5-[…] tetrazolium bromide (MTT) to a final concentration of 250 μg/ml that was incubated at 37° C. for 4 hours. […] The plate was analysed within 2 hours on a microtiter plate ELISA reader with a filter of 540 nm. […]

Human neutrophils = assay: Neutrophil chemotaxis to IL-8 (modified Boyden chamber); assay type: cell-based; conditions: 100 ng/ml IL-8
Method: Human neutrophils were obtained from peripheral blood samples of normal volunteers and mixed in ACD solution (0.085 M trisodium citrate, 0.065 M citric acid, 2% dextrose) to prevent clotting. Five percent dextran was added and the separated plasma and white blood cells were removed. The cells were washed twice in PBS, pH 7.2 and a Ficoll gradient was used to separate the lymphocytes. The isolated neutrophils were then washed and resuspended in PBS. Red cells were lysed by brief exposure to hypotonic PBS.
as §2, with “(1993).” for “(1993). Briefly, a 96-well chemotaxis chamber with a lower recess large enough to hold a microtiter plate (Neuro Probe, stock#MBA96) and a 5 μm framed filter (Neuro Probe, stock#PFD5/A) were used. The microtiter plate was filled with chemoattractants and controls and placed in the recess of the chemotaxis chamber.”

macrophage cell line S1 = assay: Macrophage chemotaxis to endotoxin-activated mouse serum, S1; assay type: cell-based
Method: as §1, §2

smooth muscle cells = assay: Smooth muscle cell migration after wounding of monolayers; assay type: cell-based, bovine; conditions: peptides 2 μg/ml
Method: Smooth muscle cells were isolated from bovine aorta as described previously from rat aorta (Majack et al., 1984) and were maintained in Dulbecco's Modified Eagles medium (DME) supplemented with 10% fetal calf serum (FCS) and 20 mM HEPES buffer, pH 7.2 at 37° C. and 5% CO2 in air. All experiments were performed using defined medium [DME with 20 mM HEPES buffer, pH 7.2, 0.5 U/ml insulin (beef and pork zinc suspension, Novo Laboratories Ltd., Willowdale, Ontario) and 4 μg/ml transferrin (Sigma Chemical Co., St. Louis, Mo.)], and the culture medium was replaced 24 hours before filming. Wounding injury to confluent monolayers consisted of removal of half the monolayer using a cell lifter followed by the addition of fresh defined medium in the presence of either RHAMM peptide aa401-411 or the scrambled peptide of the same domain as described above.
The HA-binding region of RHAMM consists of two 10 amino acid domains located close to the carboxy terminus of the protein (Yang, 1993). A peptide mimicking Domain 1 (amino acids 401-411)—YKQKIKHVVKLK—and a scrambled peptide consisting of the same amino acids arranged in a random manner—YLKQKKVKKHIV—were synthesized. Both peptides were used at a final concentration of 2 μg/ml in locomotion assays.
Injured cell monolayers were monitored for motility using an IM 35 Zeiss inverted microscope to which a video camera (Hamamatsu CCD, Inc., Japan) was attached. The cells were maintained at 37° C. using a heated platform (TRZ 3700, Zeiss, Germany). Cell locomotion was followed by using image analysis (Image 1, Universal Imaging Corp., Westchester, Pa. This program allows quantification of nuclear displacement from a sequence of digitalized images. The motility of thirty cells in each experiment was followed for a period of 24 hours with mean velocities calculated every hour.

C3 fibroblasts [4] = assay: Focal adhesion formation (vinculin immunofluorescence) and cell spreading of C3 fibroblasts; assay type: cell-based, murine; conditions: for cells with focal adhesion staining (vinculin plaque-positive cells): 100 ng/mL
Method: The ras-transformed 10T½ cells termed C3 (Egan et al., 1987) were grown on fibronectin coated glass coverslips for 24 hrs. The cells were then exposed to RHAMM I-2a (1 ng/ml to 1 mg/ml) for 2 hrs at 37° C. before fixing with 3% paraformaldehyde/phosphate buffered saline (PBS). Cells were then washed three times with 10% fetal calf serum PBs, permeabilized with 0.2% triton X-100/PBS for 3 min, and washed again. The coverslips were then incubated with anti-vinculin (Sigma, 1:75 dilution) or an identical concentration of nonspecific mouse IgG for 1 hr at 37° C. After washing, the coverslips were incubated with rhodamine labelled goat anti-mouse antibody (1:200, Sigma) for 2 hrs at room temperature. After further washings, the coverslips were mounted on glass slides and viewed on a Zeiss Axiovert 35 M fluorescent microscope.

“peptide^aa423-432: 10 amino acid peptide corresponding to one of the HA binding domains of RHAMM (KEVELEKHIA; UniProt Q00547 423-432, looked up, fragment)” was tested, and the “concentration at which cell locomotion was significantly inhibited” value (C3 fibroblasts [1]) was ≥ 5 ng/mL.

YKQKIKHVVKLK [peptide aa^401-411] was tested, and the “effect on locomotion of all cell lines” value [2] was “reduced significantly”, the “effect on chemotaxis to endotoxin-activated mouse serum” value [3] was “inhibited” and the “effect on neutrophil chemotaxis to IL-8” value (Human neutrophils) was “completely inhibited; also recorded: significantly inhibited”. For the same molecule, the “effect on chemotaxis to endotoxin-activated mouse serum” value (macrophage cell line S1) was “inhibited”, the “effect on rate of translocation of smooth muscle cells after wounding” value (“effect on rate” below) (smooth muscle cells) was “significantly reduced the rate of translocation” and the “effect on rate” value (smooth muscle cells; listed as Peptide aa^401-411) was “significantly inhibited the rate of translocation”.

“YLKQKKVKKHIV [scrambled peptide, same amino acids as peptide aa401-411 arranged in a random manner, reference compound]” was tested, and the “effect on rate” value (smooth muscle cells) was “no effect on the wounding response”.

B1: RHAMM I-2a-GST fusion protein: GST fusion protein of the secreted RHAMM isoform I-2a (with alternatively spliced exon 2A) (protein)
chain: MRALSLELMKLRNKRETKMRSMMVKQEGMELKLQATQKDLTESKGKIVQLEGKLVSIEKEKIDEKCETEKLLEYIQEISCASDQVEKCKVDIAQLEEDLKEKDREILSLKQSLEENITFSKQIEDLTVKCQLLETERDNLVSKDRERAETLSAEMQILTERLALERQEYEKLQQKELQSQSLLQQEKELSARLQQQLCSFQEEMTSEKNVFKEELKLALAELDAVQQKEEQSERLVKQLEEERKSTAEQLTRLDNLLREKEVELEKHIAAHAQAILIAQEKYNDTAQSLRDVTAQLESVQEKYNDTAQSLRDVTAQLESEQEKYNDTAQSLRDVTAQLESEQEKYNDTAQSLRDVTAQLESVQEKYNDTAQSLRDVTAQLESYKSSTLKEIEDLKLENLTLQEKVAMAEKSVEDVQQQILTAESTNQEYARMVQDLQNRSTLKEEEIKEITSSFLEKITDLKNQLRQQDEDFRKQLEEKGKRTAEKENVMTELTMEINKWRLLYDELYEKTKPFQQQLDAFEAEKQALLNEHGATQEQLNKIRDSYAQLLGHQNLKQKIKHVVKLKDENSQLKSEVSKLRSQLVKRKQNELRLQGELDKALGIRHFDPSKAFCHASKENFTPLKEGNPNCC
In the case of B1, the “cells being vinculin plaque positive” value (C3 fibroblasts [4]; 1 ng/mL, 2 hrs) is reported as 75%, the “cells with focal adhesion staining (vinculin plaque-positive cells)” value (C3 fibroblasts [4]; 2 hrs) is reported as < 50% and the “cells with focal adhesion staining (vinculin plaque-positive cells)” value (C3 fibroblasts [4]; 2 hrs, listed as RHAMM I-2a) is reported as > 50%. For the same molecule, the vinculin plaque-positive cells (C3 fibroblasts [4]; 1 mg/mL, 2 hrs) was > 50% and the “effect on cell morphology” value (C3 fibroblasts [4]; various concentrations for 2 hours, data not shown) was “stimulate cell spreading”.
